Laboratory results as given in patent US7846956B2, “Malononitrile compound as pesticides” (Sumitomo Chemical Company, Limited, priority 2004, dated 2010).
Where two headings read alike, the source gives them in different places.

Assays:
Type in all cases: in vivo
[1] = system: Culex pipiens pallens; experiment: Experimental Example 5: larvae in treated water, death rate of Culex pipiens pallens; conditions: 24 h, read-out: death rate of the pest
Procedure: Preparations of the present compounds (1), (2), (4), (5), (6), (8), (9), (11), (12), (13), (14), (15), (16), (17), (18), (19), (21), (22), (23), (24), (25), (26), (27), (31), (33), (34), (35), (36), (37), (38), (39), (40), (42), (43), (47), (48), (50), (52), (53), (54), (62), (64), (65), (66), (67), (68) and (70) obtained according to Formulation Example 5 were diluted with water so that the active ingredient concentration was 500 ppm to prepare experimental pesticidal solutions.
0.7 ml of the experimental pesticidal solution was added to 100 mL of ion-exchanged water (active ingredient concentration: 3.5 ppm). Into the solution, 20 last-instar larvae of Culex pipiens pallens were released. After one day, the surviving number was examined and the death rate of the pest was calculated.

[2] = system: Musca domestics; experiment: Experimental Example 3: filter paper test with sucrose bait, death rate of Musca domestics; conditions: read-out: death rate of the pest
Procedure: Preparations of the present compounds (1), (2), (3), (4), (5), (6), (8), (9), (10), (11), (12), (13), (14), (15), (16), (17), (18), (19), (21), (22), (23), (24), (25), (26), (27), (31), (34), (35), (36), (37), (38), (39), (40), (42), (47), (50), (52), (54), (66), (67) and (68) obtained according to Formulation Example 5 were diluted with water so that the active ingredient concentration was 500 ppm to prepare experimental pesticidal solutions.
(§1) A filter paper having a diameter of 5.5 cm was spread on the bottom of a polyethylene cup having a diameter of 5.5 cm and 0.7 ml of the experimental pesticidal solution was added dropwise onto the filter paper. As a bait 30 mg of sucrose was uniformly placed on the filter paper. Into the polyethylene cup, 10 female Musca domestics imagoes were released and the cup was sealed with a lid. After 24 hours, the number of surviving Musca domestics was examined and the death rate of the pest was calculated.

[3] = system: Blattalla germanica; experiment: Experimental Example 4: filter paper test with sucrose bait, death rate of Blattalla germanica; conditions: 144 h; 500 ppm active ingredient, 0.7 ml on filter paper; two male imagoes; after 6 days
Procedure: Preparations of the present compounds (2), (4), (5), (6), (8), (9), (11), (12), (13), (15), (17), (18), (19), (21), (24), (25), (26), (27), (35), (36), (37), (38), (40), (41), (42), (47), (50), (52), (54), (62), (64), (65), (66) and (68) obtained according to Formulation Example 5 were diluted with water so that the active ingredient concentration was 500 ppm to prepare experimental pesticidal solutions.
as §1, with “two male Blattalla gexmanica images” for “10 female Musca domestics imagoes”, “6 days,” for “24 hours,”, “Blattalla germanica” for “Musca domestics”

[4] = active ingredient concentration 3.5 ppm in water, 20 last-instar larvae, after one day
[5] = 500 ppm active ingredient, 0.7 ml on filter paper, 10 female imagoes, after 24 hours

| Structure (SMILES) | pest or weed control at 3.5 ppm [1, 4] [%] | pest or weed control at 500 ppm [2, 5] [%] | pest or weed control at 500 ppm [3] [%] | pest or weed control at 3.5 ppm [1] [%] | pest or weed control at 500 ppm ([2]; 24 h) [%] |
| --- | --- | --- | --- | --- | --- |
| CC(C)(C)c1cc(CC(C#N)(C#N)CCC(F)(F)F)[nH]n1 [present compound (1)] | ≥ 95 | ≥ 90 |  |  |  |
| Cn1nc(C(C)(C)C)cc1CC(C#N)(C#N)CCC(F)(F)F [present compound (2)] | ≥ 95 | ≥ 90 | 100 |  |  |
| CC(C)(C)c1cc(CC(C#N)(C#N)CCC(F)(F)F)n(CC(F)(F)F)n1 [present compound (3)] |  | ≥ 90 |  |  |  |
| CC(C)(C)c1cc(CC(C#N)(C#N)CCC(F)(F)F)on1 [present compound (4)] | ≥ 95 | ≥ 90 | 100 |  |  |
| CC(C)(C)c1cc(CC(C#N)(C#N)CCC(F)(F)F)sn1 [present compound (5)] | ≥ 95 | ≥ 90 | 100 |  |  |
| CC(C)(C)c1cc(CC(C#N)(C#N)CCC(F)(F)F)no1 [present compound (6)] | ≥ 95 | ≥ 90 | 100 |  |  |
| N#CC(C#N)(CCC(F)(F)F)Cc1cnn(Cc2ccccc2)c1 [present compound (8)] | ≥ 95 | ≥ 90 | 100 |  |  |
| CC(C)(C)c1nc(CC(C#N)(C#N)CCC(F)(F)F)co1 [present compound (9)] | ≥ 95 | ≥ 90 | 100 |  |  |
| N#CC(C#N)(CCC(F)(F)F)Cc1cscn1 [present compound (10)] |  | ≥ 90 |  |  |  |
| Cc1nc(CC(C#N)(C#N)CCC(F)(F)F)cs1 [present compound (11)] | ≥ 95 | ≥ 90 | 100 |  |  |
| CC(C)(C)c1nc(CC(C#N)(C#N)CCC(F)(F)F)cs1 [present compound (12)] | ≥ 95 | ≥ 90 | 100 |  |  |
| N#CC(C#N)(CCC(F)(F)F)Cc1csc(Cl)n1 [present compound (13)] | ≥ 95 | ≥ 90 | 100 |  |  |
| C#CCOc1nc(CC(C#N)(C#N)CCC(F)(F)F)cs1 [present compound (14)] | ≥ 95 | ≥ 90 |  |  |  |
| Cc1ncc(CC(C#N)(C#N)CCC(F)(F)F)s1 [present compound (15)] | ≥ 95 | ≥ 90 | 100 |  |  |
| CCc1ncc(CC(C#N)(C#N)CCC(F)(F)F)s1 [present compound (16)] | ≥ 95 | ≥ 90 |  |  |  |
| CC(C)(C)c1ncc(CC(C#N)(C#N)CCC(F)(F)F)s1 [present compound (17)] | ≥ 95 | ≥ 90 | 100 |  |  |
| N#CC(C#N)(CCC(F)(F)F)Cc1cnc(Cl)s1 [present compound (18)] | ≥ 95 | ≥ 90 | 100 |  |  |
| C#CCOc1ncc(CC(C#N)(C#N)CCC(F)(F)F)s1 [present compound (19)] | ≥ 95 | ≥ 90 | 100 |  |  |
| CC(C)(C)c1nsc(CC(C#N)(C#N)CCC(F)(F)F)n1 [present compound (21)] | ≥ 95 | ≥ 90 | 100 |  |  |
| CC(C)(C)c1nnc(CC(C#N)(C#N)CCC(F)(F)F)o1 [present compound (22)] | ≥ 95 | ≥ 90 |  |  |  |

| Structure (SMILES) | pest or weed control at 3.5 ppm [1, 4] [%] | pest or weed control at 500 ppm [2, 5] [%] | pest or weed control at 500 ppm [3] [%] | pest or weed control at 3.5 ppm [1] [%] | pest or weed control at 500 ppm ([2]; 24 h) [%] |
| --- | --- | --- | --- | --- | --- |
| CCc1nc(CC(C#N)(C#N)CCC(F)(F)F)no1 [present compound (23)] | ≥ 95 | ≥ 90 |  |  |  |
| CC(C)(C)c1nc(CC(C#N)(C#N)CCC(F)(F)F)no1 [present compound (24)] | ≥ 95 | ≥ 90 | 100 |  |  |
| CC1(c2nc(CC(C#N)(C#N)CCC(F)(F)F)no2)CC1 [present compound (25)] | ≥ 95 | ≥ 90 | 100 |  |  |
| CC(C)(C)Cc1nc(CC(C#N)(C#N)CCC(F)(F)F)no1 [present compound (26)] | ≥ 95 | ≥ 90 | 100 |  |  |
| CC(c1cnn(C(C)(C)C)c1)C(C#N)(C#N)CCC(F)(F)F (centres unmarked) [present compound (27)] | ≥ 95 | ≥ 90 | 100 |  |  |
| C#CCn1cc(CC(C#N)(C#N)CCC(F)(F)F)cn1 [present compound (31)] | ≥ 95 | ≥ 90 |  |  |  |
| CC(C)(C)n1cc(CC(C#N)(C#N)C2C=CCCC2)cn1 (centres unmarked) [present compound (33)] | ≥ 95 |  |  |  |  |
| CC(C)(C)n1ncc(CC(C#N)(C#N)CCC(F)(F)F)c1-n1cccc1 [present compound (34)] | ≥ 95 | ≥ 90 |  |  |  |
| N#CC(C#N)(CCC(F)(F)F)Cc1cc(C(F)(F)F)on1 [present compound (35)] | ≥ 95 | ≥ 90 | 100 |  |  |
| CC(c1cc(C(F)(F)F)on1)C(C#N)(C#N)CCC(F)(F)F (centres unmarked) [present compound (36)] | ≥ 95 | ≥ 90 | 100 |  |  |
| N#CC(C#N)(CCC(F)(F)F)Cc1cc(C(F)(F)C(F)(F)C(F)(F)F)on1 [present compound (39)] |  |  |  | ≥ 95 | ≥ 90 |
| CC(C)c1cc(C(C)C(C#N)(C#N)CCC(F)(F)F)no1 (centres unmarked) [present compound (41)] |  |  | 100 |  |  |
| CC(C)(C)[Si](C)(C)OCc1cc(CC(C#N)(C#N)CCC(F)(F)F)no1 [present compound (43), [(5-(t-butyldimethylsilanyloxymethyl)isoxazol-3-yl)methyl](3,3,3-trifluoropropyl)malononitrile] |  |  |  | ≥ 95 |  |
| CC(O[Si](C)(C)C(C)(C)C)c1cc(CC(C#N)(C#N)CCC(F)(F)F)no1 (centres unmarked) [present compound (48)] |  |  |  | ≥ 95 |  |
| CC(C)(O)c1cc(CC(C#N)(C#N)CCC(F)(F)F)no1 [present compound (53)] | ≥ 95 |  |  |  |  |
| CC(c1cc(C(C)(C)O)on1)C(C#N)(C#N)CCC(F)(F)F (centres unmarked) [present compound (62)] | ≥ 95 |  | 100 |  |  |
| CCC(c1cc(C(C)(C)O)on1)C(C#N)(C#N)CCC(F)(F)F (centres unmarked) [present compound (64)] | ≥ 95 |  | 100 |  |  |
| CC(C)C(c1cc(C(C)(C)O)on1)C(C#N)(C#N)CCC(F)(F)F (centres unmarked) [present compound (65)] | ≥ 95 |  | 100 |  |  |
| C#CCOC(C)(C)c1cc(CC(C#N)(C#N)CCC(F)(F)F)no1 [present compound (67)] | ≥ 95 | ≥ 90 |  |  |  |
| CC[S+]([O-])c1ncc(CC(C#N)(C#N)CCC(F)(F)F)n1C (centres unmarked) [present compound (70)] | ≥ 95 |  |  |  |  |
